Laboratory results: patent US12247029B2, “Heterocyclic compounds as class II phosphoinositide 3-kinase inhibitors” (Forschungsverbund Berlin e.V., priority 2018, dated 2025)

These compounds were tested against PI3KC2α Δ1-298 (Homo sapiens (Human), UniProt O00443) (assay: ADP-Glo kinase assay with purified PI3KC2α Δ1-298). Settings: not given.
Type: biochemical
Method: Previous studies have shown that PI3KC2α can utilize phosphatidylinositol (PI) or phosphatidylinositol 4-phosphate [PI(4)P] to produce PI(3)P or PI(3,4)P2 respectively but with a preference for PI(3,4)P2 production. To verify that purified PI3KC2α Δ1-298 is active, a radioactive kinase assay was performed with PI as a substrate and different amounts of purified PI3KC2α Δ1-298. The lipid product [PI(3)P] was separated on TLC plates, and the PI(3)P signal was correlated with the amount of PI3KC2α used (FIG. 4A). […] After having confirmed the activity of purified PI3KC2α Δ1-298, an assay suitable for high content screens in multiwell format (ADP-Glo™ assay) was established. The ADP-Glo™ assay has been used for universal detection of ATP hydrolysis. This assay measures ATP hydrolysis occurring during a kinase reaction. For detection, generated ADP is re-converted into ATP with the […] and converted into light by the Ultra-Glo™ Luciferase reagent. The luminescent signal reports kinase activity (FIG. 4B).
The ADP-Glo™ assay was first used to determine the linear correlation range of signal with different amounts of kinase, and then to assess the Kms for ATP and for PI. […] Further optimization of this assay allowed us to carry out medium-to-high throughput screening using low amounts of purified enzyme (at fixed concentrations of: ATP=40 μM, PI=200 μM, PI3KC2α A1−298=10 ng/μl).
Primary screens were performed using the ADP-Glo™ assay in a 384-well format. 37, 224 small molecules were screened for their ability to inhibit kinase activity of PI3KC2α Δ1-298. The concentration of each compound used in the primary screens was 10 μM. Kinase incubations with ATP but without PI were used as negative control samples. This primary screen turned out to be robust with an average z′ factor of 0.57, and therefore judged as successful.
ADP-Glo kinase assay was performed as described by the manufacturer's protocol. Briefly, the kinase assay was performed with a […] of liver PI/ATP/purified PI3KC2α for 20 min in kinase reaction buffer described above. To deplete the remaining ATP from the reaction, 5 μl of […] was added to the kinase reaction mixture and incubated for 40 min. For detection, the generated ADP is re-converted into ATP and converted into light by the Ultra-Glo™ luciferase in kinase detection reagent. The luminescent signal positively correlates with kinase activity. All reactions are performed in Corning® 384 well-white plates.

PI3KC2α Δ1-298, sequence (O00443 299-1686): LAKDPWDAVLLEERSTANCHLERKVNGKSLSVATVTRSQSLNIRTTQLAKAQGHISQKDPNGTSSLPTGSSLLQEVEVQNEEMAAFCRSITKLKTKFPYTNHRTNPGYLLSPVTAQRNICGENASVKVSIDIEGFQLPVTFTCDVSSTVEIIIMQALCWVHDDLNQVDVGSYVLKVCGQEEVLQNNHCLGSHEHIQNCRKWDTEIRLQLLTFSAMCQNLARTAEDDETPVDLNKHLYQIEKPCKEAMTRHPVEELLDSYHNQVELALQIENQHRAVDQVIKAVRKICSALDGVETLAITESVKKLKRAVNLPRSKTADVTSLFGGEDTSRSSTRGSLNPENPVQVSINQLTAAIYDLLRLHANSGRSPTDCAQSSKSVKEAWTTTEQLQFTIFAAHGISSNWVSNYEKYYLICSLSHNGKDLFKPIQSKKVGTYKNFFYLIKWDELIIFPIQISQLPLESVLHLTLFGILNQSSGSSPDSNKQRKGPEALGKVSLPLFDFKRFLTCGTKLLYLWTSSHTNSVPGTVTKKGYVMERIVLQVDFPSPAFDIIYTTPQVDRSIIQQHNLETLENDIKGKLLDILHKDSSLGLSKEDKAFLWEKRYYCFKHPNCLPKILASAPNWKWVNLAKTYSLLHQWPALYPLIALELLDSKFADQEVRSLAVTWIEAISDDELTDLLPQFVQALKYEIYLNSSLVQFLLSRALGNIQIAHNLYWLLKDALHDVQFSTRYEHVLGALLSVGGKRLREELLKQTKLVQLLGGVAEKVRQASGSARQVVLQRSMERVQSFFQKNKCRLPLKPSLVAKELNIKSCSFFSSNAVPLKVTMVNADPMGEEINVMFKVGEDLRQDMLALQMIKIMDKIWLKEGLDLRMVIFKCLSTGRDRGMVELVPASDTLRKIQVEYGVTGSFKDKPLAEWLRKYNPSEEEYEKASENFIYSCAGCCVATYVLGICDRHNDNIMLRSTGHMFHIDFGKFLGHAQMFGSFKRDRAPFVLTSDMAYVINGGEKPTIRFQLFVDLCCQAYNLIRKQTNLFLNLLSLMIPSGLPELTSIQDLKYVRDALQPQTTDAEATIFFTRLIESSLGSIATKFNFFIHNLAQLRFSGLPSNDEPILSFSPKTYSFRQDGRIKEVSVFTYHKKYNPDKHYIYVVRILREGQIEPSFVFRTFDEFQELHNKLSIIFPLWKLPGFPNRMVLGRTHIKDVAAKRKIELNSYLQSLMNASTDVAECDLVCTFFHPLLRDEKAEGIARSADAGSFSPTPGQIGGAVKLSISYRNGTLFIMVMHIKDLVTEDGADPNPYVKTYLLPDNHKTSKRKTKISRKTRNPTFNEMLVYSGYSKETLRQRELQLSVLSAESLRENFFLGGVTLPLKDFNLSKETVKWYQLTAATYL

For `O=C(CSc1nc2nccnc2c(=O)n1CCc1ccccc1)Nc1ncc(Br)s1` [Example Compound 29, N-(5-Bromothiazol-2-yl)-2-((4-oxo-3-phenethyl-3,4-dihydropteridin-2-yl)thio)acetamide], the “PI3KC2α inhibitory activity (in words, SAR)” value was “functional compounds”.

With `O=C(CCc1nc2nccnc2c(=O)n1CCc1ccccc1)NCCc1ccccc1` [Example Compound 102, 3-(4-Oxo-3-phenethyl-3,4-dihydropteridin-2-yl)-N-phenethylpropanamide] the inhibition at 10 µM was 36%.

Same assay, conditions: read-out: IC50 (PI3KC2α; ADP-Glo™ assay)

Compared with `O=C(CSc1nc2nccnc2c(=O)n1CCc1ccccc1)Nc1ncc(Br)s1` [Example Compound 29, N-(5-Bromothiazol-2-yl)-2-((4-oxo-3-phenethyl-3,4-dihydropteridin-2-yl)thio)acetamide], `O=C(CSc1nc2nccnc2c(=O)n1CCc1ccccc1)Nc1ncco1` [Example Compound 14, N-(Oxazol-2-yl)-2-((4-oxo-3-phenethyl-3,4-dihydropteridin-2-yl)thio)acetamide] is 2.4-fold lower in IC50: 6.6 µM for the first, 2.8 µM for the second. The second is the more potent here.

Going from `NC(=O)c1ccc(-n2c(SCC(=O)Nc3nccs3)nc3nccnc3c2=O)cc1` [Example Compound 41, 4-(4-Oxo-2-((2-oxo-2-(thiazol-2-ylamino)ethyl)thio)pteridin-3(4H)-yl)benzamide] to `N#Cc1ccc(-n2c(SCC(=O)Nc3nccs3)nc3nccnc3c2=O)cc1` [Example Compound 85, 2-((3-(4-Cyanophenyl)-4-oxo-3,4-dihydropteridin-2-yl)-thio)-N-(thiazol-2-yl)acetamide], the IC50 rises from 0.051 µM to 1.2 µM (24-fold).

Going from `CS(=O)(=O)c1ccc(-n2c(SCC(=O)Nc3nccs3)nc3nccnc3c2=O)cc1` [Example Compound 78, 2-((3-(4-(Methylsulfonyl)phenyl)-4-oxo-3,4-dihydropteridin-2-yl)thio)-N-(thiazol-2-yl)acetamide] to `O=C(CSc1nc2nccnc2c(=O)n1CCc1cccs1)Nc1nccs1` [Example Compound 8, 2-((4-Oxo-3-(2-(thiophen-2-yl)ethyl)-3,4-dihydropteridin-2-yl)thio)-N-(thiazol-2-yl)acetamide], the IC50 falls from 9.5 µM to 1.1 µM (8.6-fold).

Going from `Cc1cnc2nc(SCC(=O)Nc3nccs3)n(CCc3ccccc3)c(=O)c2n1` [Example Compound 46, 2-((6-Methyl-4-oxo-3-phenethyl-3,4-dihydropteridin-2-yl)thio)-N-(thiazol-2-yl)acetamide] to `COC(=O)Cc1csc(NC(=O)CSc2nc3nccnc3c(=O)n2CCc2ccccc2)n1` [Example Compound 24, Methyl 2-(2-(2-((4-oxo-3-phenethyl-3,4-dihydropteridin-2-yl)thio)acetamido)thiazol-4-yl)acetate], the IC50 falls from 23 µM to 2.2 µM (10-fold). The second is the more potent here.

Compared with `C[C@@H](c1ccccc1)n1c(SCc2nc3ccccc3[nH]2)nc2nccnc2c1=O` [Example Compound 90, (S)-2-(((1H-Benzo[d]imidazol-2-yl)methyl)thio)-3-(1-phenylethyl)pteridin-4(3H)-one], `O=c1c2nccnc2nc(SCc2nc3ccccc3[nH]2)n1CCc1ccccc1` [Example Compound 65, 2-(((1H-Benzo[d]imidazol-2-yl)methyl)thio)-3-phenethylpteridin-4(3H)-one] is 94-fold lower in IC50: 16 µM for the first, 0.17 µM for the second. The second is the more potent here.

Compared with `Cc1ccc(-c2csc(NC(=O)CSc3nc4nccnc4c(=O)n3CCc3ccccc3)n2)s1` [Example Compound 30, N-(4-(5-Methylthiophen-2-yl)thiazol-2-yl)-2-((4-oxo-3-phenethyl-3,4-dihydropteridin-2-yl)thio)acetamide], `O=C(CSc1nc2nccnc2c(=O)n1CCc1ccccc1)Nc1nc(-c2cccc(F)c2)cs1` [Example Compound 26, N-(4-(3-Fluorophenyl)thiazol-2-yl)-2-((4-oxo-3-phenethyl-3,4-dihydropteridin-2-yl)thio)acetamide] is 3.9-fold lower in IC50: 5.8 µM for the first, 1.5 µM for the second.

First: O=c1c2nccnc2nc(SCc2nc3cc(Br)cnc3[nH]2)n1CCc1ccccc1 [Example Compound 74, 2-(((6-Bromo-3H-imidazo[4,5-b]pyridin-2-yl)methyl)thio)-3-phenethylpteridin-4(3H)-one]
Second: Cn1ncc2c(=O)[nH]c(CSc3nc4nccnc4c(=O)n3CCc3ccccc3)nc21 [Example Compound 71, 2-(((1-Methyl-4-oxo-4,5-dihydro-1H-pyrazolo[3,4-d]pyrimidin-6-yl)methyl)thio)-3-phenethylpteridin-4(3H)-one]
The IC50 of the first is 1.6-fold lower: 0.91 µM for the first, 1.5 µM for the second. The first is the more potent here.

First: O=C(CSc1nc2nccnc2c(=O)n1CCc1ccccc1)Nc1ncccn1 [Example Compound 20, 2-((4-Oxo-3-phenethyl-3,4-dihydropteridin-2-yl)thio)-N-(pyrimidin-2-yl)acetamide]
Second: O=C(CSc1nc2nccnc2c(=O)n1CCc1ccccc1)Nc1ccccc1 [Example Compound 22, 2-((4-Oxo-3-phenethyl-3,4-dihydropteridin-2-yl)thio)-N-phenylacetamide]
The IC50 of the first is 1.6-fold lower: 2 µM for the first, 3.3 µM for the second.

`O=C(CSc1nc2nccnc2c(=O)n1CCc1ccccc1)Nc1nc(C(=O)N2CCOCC2)cs1` [Example Compound 25, N-(4-(Morpholine-4-carbonyl)thiazol-2-yl)-2-((4-oxo-3-phenethyl-3,4-dihydropteridin-2-yl)thio)acetamide] and `N#Cc1ccc(-c2csc(NC(=O)CSc3nc4nccnc4c(=O)n3CCc3ccccc3)n2)cc1` [Example Compound 50, N-(4-(4-Cyanophenyl)thiazol-2-yl)-2-((4-oxo-3-phenethyl-3,4-dihydropteridin-2-yl)thio)acetamide] are within 1.5-fold of each other in IC50: 3.5 µM for the first, 2.9 µM for the second.

First: O=C(CSc1nc2nccnc2c(=O)n1Cc1ccco1)Nc1ccccc1F [Example Compound 33, N-(2-Fluorophenyl)-2-((3-(furan-2-ylmethyl)-4-oxo-3,4-dihydropteridin-2-yl)thio)acetamide]
Second: O=C(CSc1nc2nccnc2c(=O)n1CC(F)(F)c1ccccc1)Nc1nccs1 [Example Compound 18, 2-((3-(2,2-Difluoro-2-phenylethyl)-4-oxo-3,4-dihydropteridin-2-yl)thio)-N-(thiazol-2-yl)acetamide]
The IC50 of the first is 3.4-fold higher: 7.9 µM for the first, 2.3 µM for the second.

First: O=C(CSc1nc2nccnc2c(=O)n1C1CC1c1ccccc1)Nc1nccs1 (centres unmarked) [Example Compound 21, 2-((4-Oxo-3-(2-phenylcyclopropyl)-3,4-dihydropteridin-2-yl)thio)-N-(thiazol-2-yl)acetamide]
Second: O=C(CSc1nc2nccnc2c(=O)n1CCC1CCCCC1)Nc1nccs1 [Example Compound 44, 2-((3-(2-Cyclohexylethyl)-4-oxo-3,4-dihydropteridin-2-yl)thio)-N-(thiazol-2-yl)acetamide]
The IC50 of the first is 20-fold higher: 12 µM for the first, 0.59 µM for the second.

First: CS(=O)(=O)Nc1ccc(-c2csc(NC(=O)CSc3nc4nccnc4c(=O)n3CCc3ccccc3)n2)cc1 [Example Compound 2, N-(4-(4-(Methylsulfonamido)phenyl)thiazol-2-yl)-2-((4-oxo-3-phenethyl-3,4-dihydropteridin-2-yl)thio)acetamide]
Second: O=C(CSc1nc2nccnc2c(=O)n1CCc1ccccc1)Nc1nc(-c2ccc3ccccc3c2)cs1 [Example Compound 48, N-(4-(Naphthalen-2-yl)thiazol-2-yl)-2-((4-oxo-3-phenethyl-3,4-dihydropteridin-2-yl)thio)acetamide]
The IC50 of the first is 15-fold lower: 1.7 µM for the first, 26 µM for the second. The first is the more potent here.

First: COc1cccc2nc(NC(=O)CSc3nc4nccnc4c(=O)n3CCc3ccccc3)sc12 [Example Compound 56, N-(7-Methoxybenzo[d]thiazol-2-yl)-2-((4-oxo-3-phenethyl-3,4-dihydropteridin-2-yl)thio)acetamide]
Second: O=C(CSc1nc2nccnc2c(=O)n1CCc1ccccc1)Nc1cc(-c2ccccc2)cs1 [Example Compound 27, 2-((4-Oxo-3-phenethyl-3,4-dihydropteridin-2-yl)thio)-N-(4-phenylthiophen-2-yl)acetamide]
The IC50 of the first is 5.5-fold lower: 3.1 µM for the first, 17.2 µM for the second. The first is the more potent here.

First: O=c1c2nccnc2nc(SCc2nc3ccccc3[nH]2)n1CCc1ccc(O)cc1 [Example Compound 96, 2-(((1H-Benzo[d]imidazol-2-yl)methyl)thio)-3-(4-hydroxyphenethyl)pteridin-4(3H)-one]
Second: CNC(=O)c1ccc(-n2c(SCc3nc4ccccc4[nH]3)nc3nccnc3c2=O)cc1 [Example Compound 82, 4-(2-(((1H-Benzo[d]imidazol-2-yl)methyl)thio)-4-oxopteridin-3(4H)-yl)-N-methylbenzamide]
The IC50 of the first is 6.1-fold lower: 0.1 µM for the first, 0.61 µM for the second.

First: O=C(CSc1nc2nccnc2c(=O)n1CCc1ccccc1)NC1CCC1 [Example Compound 60, N-Cyclobutyl-2-((4-oxo-3-phenethyl-3,4-dihydropteridin-2-yl)thio)acetamide]
Second: O=C(CSc1nc2nccnc2c(=O)n1CCc1cccc(F)c1)Nc1ncco1 [Example Compound 3, 2-((3-(3-Fluorophenethyl)-4-oxo-3,4-dihydropteridin-2-yl)thio)-N-(oxazol-2-yl)acetamide]
The IC50 of the first is 2.8-fold higher: 5.9 µM for the first, 2.1 µM for the second. The second is the more potent here.
